According to ChEMBL document CHEMBL1130509 (Bioorg Med Chem Lett, 1997):
One block for each compound: values may come before it.

What was measured:
[1] = biological target: 5-hydroxytryptamine receptor 4 (Rattus norvegicus, UniProt Q62758); assay: Agonist activity against serotonin 5-HT4 receptor in rat tunica muscularis mucosae assay; format: functional
[2] = Compound was tested for inhibitory activity against 5-hydroxytryptamine 1 receptor
[3] = biological target: Serotonin 2 (5-HT2) receptor (Homo sapiens, UniProt P41595+P28223+P28335); assay: Compound was tested for inhibitory activity against 5-hydroxytryptamine 2 receptor; format: protein assay
[4] = biological target: T1, Alpha-1B adrenergic receptor (Homo sapiens, UniProt P35368); assay: Compound was tested for inhibitory activity against adrenergic alpha-1 receptor
T1 sequence (P35368 whole entry): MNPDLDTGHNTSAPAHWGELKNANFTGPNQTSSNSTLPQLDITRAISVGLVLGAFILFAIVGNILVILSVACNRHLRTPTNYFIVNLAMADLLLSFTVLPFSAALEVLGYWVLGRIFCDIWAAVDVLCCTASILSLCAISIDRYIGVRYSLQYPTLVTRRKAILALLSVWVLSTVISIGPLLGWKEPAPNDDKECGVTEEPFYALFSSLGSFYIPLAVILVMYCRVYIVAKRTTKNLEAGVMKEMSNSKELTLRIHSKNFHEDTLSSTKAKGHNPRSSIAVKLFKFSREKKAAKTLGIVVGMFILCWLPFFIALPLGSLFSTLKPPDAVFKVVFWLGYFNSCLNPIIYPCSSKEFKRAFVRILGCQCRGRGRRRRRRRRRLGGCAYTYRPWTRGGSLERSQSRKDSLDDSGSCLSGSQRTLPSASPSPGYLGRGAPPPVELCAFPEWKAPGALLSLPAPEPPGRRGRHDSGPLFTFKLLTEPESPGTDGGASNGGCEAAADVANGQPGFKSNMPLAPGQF

[5] = biological target: T2, Alpha-2A adrenergic receptor (Rattus norvegicus, UniProt P22909); assay: Compound was tested for inhibitory activity against adrenergic alpha-2 receptor
T2 sequence (P22909 whole entry): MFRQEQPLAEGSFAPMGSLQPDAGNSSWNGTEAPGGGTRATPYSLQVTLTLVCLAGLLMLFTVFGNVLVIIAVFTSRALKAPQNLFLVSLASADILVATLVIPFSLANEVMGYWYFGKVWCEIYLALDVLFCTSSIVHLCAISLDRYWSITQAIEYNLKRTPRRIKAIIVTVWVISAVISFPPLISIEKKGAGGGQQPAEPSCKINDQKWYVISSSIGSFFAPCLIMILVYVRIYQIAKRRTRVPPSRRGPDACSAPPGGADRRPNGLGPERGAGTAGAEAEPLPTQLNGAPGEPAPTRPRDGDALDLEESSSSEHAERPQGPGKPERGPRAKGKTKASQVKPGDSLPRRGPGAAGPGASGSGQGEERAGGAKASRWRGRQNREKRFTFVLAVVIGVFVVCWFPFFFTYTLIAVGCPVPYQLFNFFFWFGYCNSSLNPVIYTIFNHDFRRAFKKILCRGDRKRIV

[6] = biological target: Adrenergic receptor beta (Homo sapiens, UniProt P08588+P07550+P13945); assay: Compound was tested for inhibitory activity against Beta adrenergic receptor; format: protein assay
[7] = biological target: T3, D(2) dopamine receptor (Homo sapiens, UniProt P14416); assay: Compound was tested for inhibitory activity against Dopamine D2 receptor
T3 sequence (P14416 whole entry): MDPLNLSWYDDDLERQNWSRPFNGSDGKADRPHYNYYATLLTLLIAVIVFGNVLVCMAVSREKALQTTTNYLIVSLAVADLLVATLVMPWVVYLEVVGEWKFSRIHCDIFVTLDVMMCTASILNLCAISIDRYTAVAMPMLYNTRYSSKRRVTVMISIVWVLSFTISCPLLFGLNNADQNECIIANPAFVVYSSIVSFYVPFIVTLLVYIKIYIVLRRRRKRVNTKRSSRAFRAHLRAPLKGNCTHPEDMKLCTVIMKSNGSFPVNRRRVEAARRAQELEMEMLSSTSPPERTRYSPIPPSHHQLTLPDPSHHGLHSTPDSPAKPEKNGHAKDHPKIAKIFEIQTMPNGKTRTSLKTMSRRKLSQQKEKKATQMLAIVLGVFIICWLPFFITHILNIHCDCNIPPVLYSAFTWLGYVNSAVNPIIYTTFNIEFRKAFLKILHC

[8] = biological target: D(1A) dopamine receptor (Homo sapiens, UniProt P21728); assay: Compound was tested for inhibitory activity against Dopamine D1 receptor
Chain of D(1A) dopamine receptor (P21728 whole entry): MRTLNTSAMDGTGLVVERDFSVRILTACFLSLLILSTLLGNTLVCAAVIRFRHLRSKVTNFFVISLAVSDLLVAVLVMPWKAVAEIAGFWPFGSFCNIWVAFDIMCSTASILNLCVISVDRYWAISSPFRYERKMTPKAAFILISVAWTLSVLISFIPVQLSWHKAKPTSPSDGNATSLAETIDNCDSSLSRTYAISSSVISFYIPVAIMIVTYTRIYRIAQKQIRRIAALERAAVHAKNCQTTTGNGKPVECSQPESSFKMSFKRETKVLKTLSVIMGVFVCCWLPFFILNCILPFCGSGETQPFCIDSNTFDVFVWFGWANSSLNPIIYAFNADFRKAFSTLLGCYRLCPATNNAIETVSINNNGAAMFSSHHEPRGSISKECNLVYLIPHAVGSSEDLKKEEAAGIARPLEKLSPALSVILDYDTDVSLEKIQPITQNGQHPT

[9] = biological target: Muscarinic acetylcholine receptor M3 (Rattus norvegicus, UniProt P08483); assay: Compound was tested for inhibitory activity against Muscarinic acetylcholine receptor
Chain of Muscarinic acetylcholine receptor M3 (P08483 whole entry): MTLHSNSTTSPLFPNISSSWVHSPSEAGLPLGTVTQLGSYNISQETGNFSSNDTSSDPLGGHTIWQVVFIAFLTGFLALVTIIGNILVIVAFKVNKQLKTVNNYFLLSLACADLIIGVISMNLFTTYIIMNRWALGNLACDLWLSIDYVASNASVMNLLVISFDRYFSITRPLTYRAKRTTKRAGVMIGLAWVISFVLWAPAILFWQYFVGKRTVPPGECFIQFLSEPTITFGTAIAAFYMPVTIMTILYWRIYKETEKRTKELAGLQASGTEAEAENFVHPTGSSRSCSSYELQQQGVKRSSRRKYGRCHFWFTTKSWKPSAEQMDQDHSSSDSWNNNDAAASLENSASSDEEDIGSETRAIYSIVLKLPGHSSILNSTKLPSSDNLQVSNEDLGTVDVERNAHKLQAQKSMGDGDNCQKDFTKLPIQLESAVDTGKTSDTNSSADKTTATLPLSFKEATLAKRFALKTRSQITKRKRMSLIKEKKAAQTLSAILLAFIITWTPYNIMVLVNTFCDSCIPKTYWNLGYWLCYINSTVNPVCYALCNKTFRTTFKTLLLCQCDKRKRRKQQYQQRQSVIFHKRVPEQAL

[10] = biological target: Substance-P receptor (Homo sapiens, UniProt P25103); assay: Compound was tested for inhibitory activity against Tachykinin receptor 1
Chain of Substance-P receptor (P25103 whole entry): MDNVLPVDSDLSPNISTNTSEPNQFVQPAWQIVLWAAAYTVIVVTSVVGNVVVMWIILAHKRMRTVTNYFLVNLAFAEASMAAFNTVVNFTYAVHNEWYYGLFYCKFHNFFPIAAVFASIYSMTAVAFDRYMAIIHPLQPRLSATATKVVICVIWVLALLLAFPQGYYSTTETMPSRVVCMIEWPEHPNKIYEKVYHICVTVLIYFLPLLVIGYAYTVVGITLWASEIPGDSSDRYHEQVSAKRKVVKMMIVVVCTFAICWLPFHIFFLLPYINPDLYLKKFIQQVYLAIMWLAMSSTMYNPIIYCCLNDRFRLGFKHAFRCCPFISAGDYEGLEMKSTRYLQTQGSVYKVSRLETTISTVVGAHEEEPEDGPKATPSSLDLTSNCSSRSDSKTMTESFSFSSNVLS

[11] = biological target: T4, 5-hydroxytryptamine receptor 3A (Homo sapiens, UniProt P46098); assay: (§1) Compound was tested for its binding affinity for the 5-hydroxytryptamine 3 receptor
T4 sequence (P46098 whole entry): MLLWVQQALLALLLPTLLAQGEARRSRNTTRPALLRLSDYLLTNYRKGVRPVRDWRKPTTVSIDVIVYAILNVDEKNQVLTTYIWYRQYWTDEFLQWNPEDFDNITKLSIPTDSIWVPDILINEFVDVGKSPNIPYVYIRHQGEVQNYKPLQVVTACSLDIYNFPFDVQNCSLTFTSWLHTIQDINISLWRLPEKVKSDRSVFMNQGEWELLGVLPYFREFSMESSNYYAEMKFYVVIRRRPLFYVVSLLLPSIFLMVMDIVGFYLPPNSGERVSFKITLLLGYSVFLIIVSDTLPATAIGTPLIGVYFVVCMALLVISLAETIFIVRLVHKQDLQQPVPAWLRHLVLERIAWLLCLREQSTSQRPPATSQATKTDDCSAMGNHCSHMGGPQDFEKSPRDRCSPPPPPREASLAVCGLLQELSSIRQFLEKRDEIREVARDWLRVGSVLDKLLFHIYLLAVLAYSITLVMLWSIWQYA

[12] = biological target: T5, Serotonin 3 (5-HT3) receptor (Rattus norvegicus, UniProt P35563+Q9JJ16); assay: as §1; format: protein-complex assay
T5 sequence (P35563 whole entry): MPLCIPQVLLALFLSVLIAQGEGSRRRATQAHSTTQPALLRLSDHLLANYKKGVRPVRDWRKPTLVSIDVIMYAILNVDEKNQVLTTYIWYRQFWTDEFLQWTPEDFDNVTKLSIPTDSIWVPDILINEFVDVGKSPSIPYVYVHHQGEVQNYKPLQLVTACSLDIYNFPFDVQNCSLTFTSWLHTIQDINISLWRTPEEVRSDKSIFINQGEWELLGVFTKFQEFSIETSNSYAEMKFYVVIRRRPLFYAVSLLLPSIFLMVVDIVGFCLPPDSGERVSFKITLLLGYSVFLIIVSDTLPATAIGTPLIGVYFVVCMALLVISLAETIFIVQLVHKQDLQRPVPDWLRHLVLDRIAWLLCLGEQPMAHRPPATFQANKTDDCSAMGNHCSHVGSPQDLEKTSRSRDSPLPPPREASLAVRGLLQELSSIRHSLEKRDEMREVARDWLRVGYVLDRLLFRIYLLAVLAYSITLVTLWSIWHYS
T5 sequence (Q9JJ16 whole entry): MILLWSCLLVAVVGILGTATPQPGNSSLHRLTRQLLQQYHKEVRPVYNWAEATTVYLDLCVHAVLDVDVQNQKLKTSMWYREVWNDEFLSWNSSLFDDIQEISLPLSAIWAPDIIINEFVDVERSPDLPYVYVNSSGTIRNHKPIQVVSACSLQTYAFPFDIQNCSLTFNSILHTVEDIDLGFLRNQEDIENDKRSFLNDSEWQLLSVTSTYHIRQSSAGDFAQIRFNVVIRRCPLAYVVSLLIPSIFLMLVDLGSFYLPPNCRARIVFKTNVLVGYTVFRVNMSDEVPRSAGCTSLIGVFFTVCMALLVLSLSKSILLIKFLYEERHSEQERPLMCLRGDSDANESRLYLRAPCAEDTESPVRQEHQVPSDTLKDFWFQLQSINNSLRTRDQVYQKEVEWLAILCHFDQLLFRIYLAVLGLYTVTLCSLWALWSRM

[13] = biological target: T3, D(2) dopamine receptor; assay: Compound was selective with respect to binding at the Dopamine receptor D2
[14] = system: Mus musculus; assay: Compound was tested for inhibition of serotonin 5-HT3 receptor mediated bradycardia in Bezold-Jarisch reflex model in mice at 1 mg/kg after intraperitoneal administration; format: functional; conditions: ip

Chain of 5-hydroxytryptamine receptor 4 (Q62758 whole entry): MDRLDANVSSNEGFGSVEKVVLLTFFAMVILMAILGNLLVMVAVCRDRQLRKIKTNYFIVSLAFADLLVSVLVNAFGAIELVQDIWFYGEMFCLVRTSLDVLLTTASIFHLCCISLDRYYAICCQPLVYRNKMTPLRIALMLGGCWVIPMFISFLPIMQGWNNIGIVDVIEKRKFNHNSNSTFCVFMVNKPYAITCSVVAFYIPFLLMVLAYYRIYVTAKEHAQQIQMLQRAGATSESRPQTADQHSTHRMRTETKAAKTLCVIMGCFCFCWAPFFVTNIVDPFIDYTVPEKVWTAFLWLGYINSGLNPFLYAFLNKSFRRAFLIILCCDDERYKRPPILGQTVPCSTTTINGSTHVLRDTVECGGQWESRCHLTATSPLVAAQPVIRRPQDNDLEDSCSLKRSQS

Structure (SMILES): COc1cc(NC(C)=O)c(Cl)cc1C(=O)NC1C2CC3CC1CN3C2 (configuration not stated)
- EC50 [1]: > 10000 nM

Structure (SMILES): COc1cc(N)c(Cl)cc1C(=O)NC1C2CC3CN(C2)CC31.Cl (configuration not stated)
- IC50 [2]: > 10 µM
- IC50 [3]: > 10 µM
- IC50 [4]: > 10 µM
- IC50 [5]: > 10 µM
- IC50 [6]: > 10 µM
- IC50 [7]: > 10 µM
- IC50 [8]: > 10 µM
- IC50 [9]: > 10 µM
- EC50 [1]: 51 nM
- IC50 [10]: > 10 µM
- Ki [11]: 1.2 nM

Now from value to compound, other results behind:

- EC50 [1]: 1660 nM
Structure (SMILES): COc1cc(N)c(Cl)cc1C(=O)NCCC12CC3CN(CC3C1)C2

- Ki [12]: 5 nM
- IC50 [13]: > 10 µM
Structure (SMILES): COc1cc(N)c(Cl)cc1C(=O)NCC12CC3CN(CC3C1)C2
- inhibition in vivo at 1 mg/kg [14]: 70%

- EC50 [1]: > 10000 nM
Structure (SMILES): COc1cc(NC(C)=O)c(Cl)cc1C(=O)NCC1C2CC3CC1CN3C2 (configuration not stated)
